Laboratory results taken from PubChem BioAssay AID248 (DTP/NCI, 2004).
Toxic doses and inconclusive results are not listed.

System: L1210 leukemia ip in BDF1 mice, survival T/C
Assay: NCI In Vivo Anticancer Drug Screen. Data for tumor model L1210 Leukemia (intraperitoneal) in B6D2F1 (BDF1) mice
Conditions: endpoint: mean survival time, higher = longer survival
How it was run: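 Survival endpoint. Drug-treated group vs vehicle group, expressed as T divided by C. Tumor passaged by transplantation.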

[1] = dose: 100.0 mg/kg/injection, schedule: Q04DX003 (ip), vehicle: Klucel (hydroxypropylcellulose) (HPC)
[2] = dose: 200.0 mg/kg/injection, schedule: Q04DX003 (ip), vehicle: Klucel (hydroxypropylcellulose) (HPC)
[3] = dose: 400.0 mg/kg/injection, schedule: Q04DX003 (ip), vehicle: Klucel (hydroxypropylcellulose) (HPC)
[4] = dose: 100.0 mg/kg/injection, schedule: Q01DX009 (ip), vehicle: saline with Tween-80
[5] = dose: 100.0 mg/kg/injection, schedule: Q04DX003 (ip), vehicle: saline with Tween-80
[6] = dose: 200.0 mg/kg/injection, schedule: Q01DX009 (ip), vehicle: saline with Tween-80
[7] = dose: 200.0 mg/kg/injection, schedule: Q04DX003 (ip), vehicle: saline with Tween-80
[8] = dose: 400.0 mg/kg/injection, schedule: Q01DX009 (ip), vehicle: saline with Tween-80
[9] = dose: 400.0 mg/kg/injection, schedule: Q04DX003 (ip), vehicle: saline with Tween-80
[10] = dose: 100.0 mg/kg/injection, schedule: Q01DX001 (ip), vehicle: saline
[11] = dose: 200.0 mg/kg/injection, schedule: Q01DX001 (ip), vehicle: saline
[12] = dose: 400.0 mg/kg/injection, schedule: Q01DX001 (ip), vehicle: saline
[13] = dose: 100.0 mg/kg/injection, schedule: Q01DX009 (ip), vehicle: saline
[14] = dose: 100.0 mg/kg/injection, schedule: Q01DX009 (ip), vehicle: Klucel (hydroxypropylcellulose) (HPC)
[15] = dose: 200.0 mg/kg/injection, schedule: Q01DX009 (ip), vehicle: Klucel (hydroxypropylcellulose) (HPC)
[16] = dose: 100.0 mg/kg/injection, schedule: Q04DX003 (ip), vehicle: saline
[17] = dose: 200.0 mg/kg/injection, schedule: Q04DX003 (ip), vehicle: saline
[18] = dose: 400.0 mg/kg/injection, schedule: Q04DX003 (ip), vehicle: saline
[19] = dose: 400.0 mg/kg/injection, schedule: Q01DX009 (ip), vehicle: Klucel (hydroxypropylcellulose) (HPC)

In the case of `NC(N)=NN=C1CCC(C2CCCCC2)CC1` (stereo not drawn), the T/C (dose: 15.0 mg/kg/injection, schedule: Q01DX Z (ip), vehicle: methylcellulose (MC)) is reported as 95 % of control, the T/C (dose: 30.0 mg/kg/injection, schedule: Q01DX Z (ip), vehicle: methylcellulose (MC)) is reported as 97 % of control and the T/C (dose: 30.0 mg/kg/injection, schedule: Q01DX Z (oral), vehicle: methylcellulose (MC)) is reported as 92 % of control. The T/C (dose: 60.0 mg/kg/injection, schedule: Q01DX Z (ip), vehicle: methylcellulose (MC)) was 92 % of control, the T/C (dose: 60.0 mg/kg/injection, schedule: Q01DX Z (oral), vehicle: methylcellulose (MC)) was 92 % of control and the T/C (dose: 120.0 mg/kg/injection, schedule: Q01DX Z (ip), vehicle: methylcellulose (MC)) was 92 % of control. For the same molecule, the T/C (dose: 120.0 mg/kg/injection, schedule: Q01DX Z (oral), vehicle: methylcellulose (MC)) was 93 % of control.
In the case of `CN(C)C(=O)Sc1c(Cl)cc(S(=O)(=O)F)cc1[N+](=O)[O-]`, the T/C [1] is reported as 102 % of control, the T/C [2] is reported as 101 % of control and the T/C [3] is reported as 100 % of control.
For `c1ccc([P+]2(Cc3cccc4ccccc34)CCc3[nH]c4ccccc4c3C2)cc1` (stereo not drawn), the T/C [1] was 96 % of control and the T/C [2] was 98 % of control.
In the case of `NC(=O)SCC(=O)NNc1ccccc1`, the T/C (dose: 75.0 mg/kg/injection, schedule: Q01DX001 (ip), vehicle: other) is reported as 90 % of control, the T/C (dose: 150.0 mg/kg/injection, schedule: Q01DX001 (ip), vehicle: other) is reported as 98 % of control and the T/C (dose: 300.0 mg/kg/injection, schedule: Q01DX001 (ip), vehicle: other) is reported as 100 % of control.
In the case of `C#CCOCC1CNC(=S)O1` (stereo not drawn), the T/C [4] is reported as 100 % of control, the T/C [5] is reported as 95 % of control and the T/C [6] is reported as 98 % of control. The T/C [7] was 111 % of control, the T/C [8] was 96 % of control and the T/C [9] was 97 % of control.
With `COc1ccc(Nc2ccc(O)c3c2C(=O)c2ccccc2C3=O)c(Br)c1` the T/C [10] was 101 % of control, the T/C [11] was 95 % of control and the T/C [12] was 97 % of control.
For `CC(C)(CO)C(O)C(=O)NCCCCC1CCCCC1` (stereo not drawn), the T/C [1] was 98 % of control, the T/C [2] was 93 % of control and the T/C [3] was 88 % of control.
For `CC1=NC(C(=O)Cl)NN1c1ccccc1` (stereo not drawn), the T/C (dose: 25.0 mg/kg/injection, schedule: Q01DX009 (ip), vehicle: saline) was 101 % of control, the T/C (dose: 25.0 mg/kg/injection, schedule: Q04DX003 (ip), vehicle: saline with Tween-80) was 96 % of control and the T/C (dose: 50.0 mg/kg/injection, schedule: Q01DX009 (ip), vehicle: saline) was 97 % of control. For the same molecule, the T/C (dose: 50.0 mg/kg/injection, schedule: Q04DX003 (ip), vehicle: saline with Tween-80) was 101 % of control, the T/C [10] was 93 % of control and the T/C [13] was 95 % of control. For the same molecule, the T/C [5] was 98 % of control.
In the case of `CCSSCC(N)C(=O)O` (stereo not drawn), the T/C (dose: 100.0 mg/kg/injection, schedule: Q01DX001 (ip), vehicle: other) is reported as 94 % of control, the T/C (dose: 200.0 mg/kg/injection, schedule: Q01DX001 (ip), vehicle: other) is reported as 103 % of control and the T/C (dose: 400.0 mg/kg/injection, schedule: Q01DX001 (ip), vehicle: other) is reported as 103 % of control.
In the case of `CN(CCc1cnc2nc(N)[nH]c(=O)c2n1)c1ccc(C(=O)O)cc1`, the T/C (dose: 75.0 mg/kg/injection, schedule: Q01DX001 (ip), vehicle: saline) is reported as 90 % of control, the T/C (dose: 150.0 mg/kg/injection, schedule: Q01DX001 (ip), vehicle: saline) is reported as 95 % of control and the T/C (dose: 300.0 mg/kg/injection, schedule: Q01DX001 (ip), vehicle: saline) is reported as 94 % of control.
With `COCC(O)C(OC)C(OC)C(C=O)NC(=O)N(CCCl)N=O` (stereo not drawn) the T/C (dose: 14.0 mg/kg/injection, schedule: Q01DX001 (ip), vehicle: saline with Tween-80) was 159 % of control, the T/C (dose: 22.0 mg/kg/injection, schedule: Q01DX001 (ip), vehicle: saline with Tween-80) was 181 % of control and the T/C (dose: 33.5 mg/kg/injection, schedule: Q01DX001 (ip), vehicle: saline with Tween-80) was 331 % of control. For the same molecule, the T/C (dose: 50.0 mg/kg/injection, schedule: Q01DX001 (ip), vehicle: saline with Tween-80) was 431 % of control, the T/C (dose: 75.0 mg/kg/injection, schedule: Q01DX001 (ip), vehicle: saline with Tween-80) was 489 % of control and the T/C (dose: 112.0 mg/kg/injection, schedule: Q01DX001 (ip), vehicle: saline with Tween-80) was 227 % of control.
In the case of `CCOC(=O)c1ccc(NC(=O)Nc2cccc(F)c2)cc1`, the T/C [14] is reported as 101 % of control and the T/C [15] is reported as 100 % of control.
For `CCCCCCCCC1SC1CCCCCCCC(=O)NCCCOCCOCCOCC` (stereo not drawn), the T/C [1] was 96 % of control, the T/C [2] was 100 % of control and the T/C [3] was 96 % of control.
For `CCc1nc2ccccc2[nH]1`, the T/C [5] was 97 % of control and the T/C [7] was 102 % of control.
In the case of `Cc1nonc1NC(=O)OCc1ccccc1`, the T/C (dose: 100.0 mg/kg/injection, schedule: Q04DX002 (ip), vehicle: Klucel (hydroxypropylcellulose) (HPC)) is reported as 97 % of control, the T/C (dose: 200.0 mg/kg/injection, schedule: Q04DX002 (ip), vehicle: Klucel (hydroxypropylcellulose) (HPC)) is reported as 93 % of control and the T/C (dose: 400.0 mg/kg/injection, schedule: Q04DX002 (ip), vehicle: Klucel (hydroxypropylcellulose) (HPC)) is reported as 104 % of control.
For `O=S(=O)(F)c1cc(Cl)c(O)cc1Cl`, the T/C [14] was 97 % of control and the T/C [15] was 101 % of control.
`Cc1nccc(Cl)n1` was tested, and the T/C [16] was 104 % of control, the T/C [17] was 90 % of control and the T/C [18] was 93 % of control.
With `O=C1c2ccccc2-c2ncccc21` the T/C [14] was 103 % of control, the T/C [1] was 98 % of control and the T/C [15] was 102 % of control. The T/C [2] was 109 % of control and the T/C [19] was 92 % of control.
For `O=C(COc1ccc(Cl)c(Cl)c1)Nc1ccc[n+](Cc2c(Cl)cccc2S(=O)(=O)F)c1`, the T/C [10] was 88 % of control and the T/C [11] was 101 % of control.
With `CNc1nc(N(C)C)nc(C)c1[N+](=O)[O-]` the T/C (dose: 50.0 mg/kg/injection, schedule: Q01DX009 (ip), vehicle: Klucel (hydroxypropylcellulose) (HPC)) was 91 % of control, the T/C [14] was 98 % of control and the T/C [15] was 105 % of control.
In the case of `CCOc1ccc2c(O)csc2c1`, the T/C [4] is reported as 93 % of control, the T/C [6] is reported as 95 % of control and the T/C [8] is reported as 97 % of control.
In the case of `OCC(O)COc1ccccc1` (stereo not drawn), the T/C [10] is reported as 108 % of control, the T/C [11] is reported as 96 % of control and the T/C [12] is reported as 96 % of control.
For `CCOC(=O)C(CC)C1=CCCCC1` (stereo not drawn), the T/C [4] was 97 % of control, the T/C [5] was 91 % of control and the T/C [6] was 103 % of control. For the same molecule, the T/C [7] was 99 % of control and the T/C [9] was 91 % of control.
`COC(=O)c1cc(C)n(C)c(=O)c1CNC(=O)c1ccccc1` was tested, and the T/C [13] was 97 % of control, the T/C [16] was 107 % of control and the T/C (dose: 200.0 mg/kg/injection, schedule: Q01DX009 (ip), vehicle: saline) was 96 % of control. The T/C [17] was 97 % of control, the T/C (dose: 400.0 mg/kg/injection, schedule: Q01DX009 (ip), vehicle: saline) was 97 % of control and the T/C [18] was 91 % of control.
`Cc1ccc(NC(=O)NCCBr)cc1` was tested, and the T/C (dose: 50.0 mg/kg/injection, schedule: Q01DX001 (ip), vehicle: carboxymethylcellulose (CMC)) was 101 % of control, the T/C (dose: 100.0 mg/kg/injection, schedule: Q01DX001 (ip), vehicle: carboxymethylcellulose (CMC)) was 101 % of control and the T/C (dose: 200.0 mg/kg/injection, schedule: Q01DX001 (ip), vehicle: carboxymethylcellulose (CMC)) was 106 % of control. The T/C (dose: 400.0 mg/kg/injection, schedule: Q01DX001 (ip), vehicle: carboxymethylcellulose (CMC)) was 98 % of control.
In the case of `CCOC(=O)/C=C\c1c(OC)nc2ccccn2c1=O` (tested in a mixture with another compound), the T/C [14] is reported as 101 % of control, the T/C [1] is reported as 94 % of control and the T/C [15] is reported as 100 % of control. The T/C [2] was 92 % of control, the T/C [19] was 101 % of control and the T/C [3] was 95 % of control.
